Laboratory results taken from article PMC12072186, “A Novel Small Molecule Enhances Stable Dopamine Delivery to the Brain in Models of Parkinson’s Disease” (International Journal of Molecular Sciences, 2025).

Legend:
[1] = tested on: astrocyte (GFAP); assay: GFAP immunohistochemistry of astrocytes; type: in vivo, mouse
Method: Neuroinflammation is one of the most important pathogeneses in PD in addition to alpha-synuclein aggregation. To examine the effects of Pegasus on glial cell activation, we performed immunohistochemistry of astrocyte and microglia from the brains of treated vs. untreated young (6–7-month-old) and old (12–13-month-old) TgA53T mice.
Animals were deeply anesthetized with a mixture of Xylazine and Ketamine (8:80 mg/kg), washed with normal saline for 1 min, and then perfused with 4% paraformaldehyde (PFA) for 15 min. The brains were dissected out and immediately stored in 4% PFA for 24 h at 4 °C, and then transferred to 30% sucrose at 4 °C for 48 h. The brains were cut using a cryostat microtome into 20 µm thick coronal sections and stored at −20 °C. Staining for tyrosine hydroxylase (TH) was probed with anti-tyrosine hydroxylase antibody (Cat No: AB152, Sigma-Aldrich, St. Louis, MO, USA). GFAP (glial fibrillary acidic protein) was stained with anti-GFAP monoclonal antibody (Cat No:MS1376P1, Fisher Scientific, Newington, NH, USA). […] TH^+ cells were counted in a stereology-like manner across multiple visual fields (typically 20 fields) in a single animal, and the same procedure was repeated on several animals to obtain the best approximation of TH staining.

[2] = tested on: human alpha-synuclein; assay: Human alpha-synuclein ELISA of brain lysates; type: in vivo, mouse; settings: brain lysates of old (11–12-month-old) TgA53T mice, vs DMSO
Method: The concentration of CNS alpha-synuclein via ELISA was reduced in the brain lysates of old (11–12-month-old) TgA53T mice treated with Pegasus compared to DMSO-treated controls (Figure 5I).
The levels of DA and its metabolite HVA were measured using a commercially available ELISA (Cat No. MBS269234 and Cat# MBS1601074, MyBiosource, San Diego, CA, USA) on serum and brain tissue soluble extracts. Human alpha-synuclein was measured via a human-specific ELISA (Cat# 448607, BioLegend, San Diego, CA, USA) according to the manufacturer’s protocol.

[3] = tested on: MPTP-treated C57BL/6 mice; assay: Rotarod test in MPTP-treated mice; type: in vivo, mouse; settings: MPTP 25 mg/kg i.p. day 1–5; treatment day 1–13; vs MPTP vehicle control
Method: (§1) MPTP was injected to male C57BL/6 mice for 5 consecutive days (Figure 4A) to destroy DA neurons, and then the mice were treated with Pegasus alone or Pegasus + Benserazide compared to L-dopa alone or L-Dopa + Benserazide.
(§2) From day 1 to day 5, MPTP was administered to all the groups except Naive at a dose of 25 mg/kg, i.p., QD. Treatment with Pegasus alone (50 mg/kg, i.p., BID), a combination of Pegasus 50 mg/kg, BID + Benserazide 10 mg/kg, QD, or a combination of L-Dopa 10 mg/kg, QD + Benserazide 10 mg/kg, QD or standalone L-Dopa 10 mg/kg, QD, started on day 1 and continued until day 13. On day 13, after the first dose of Pegasus, 4 animals/time point from each group were sacrificed at 0.5, 1, 3, 6, and 12 h, and the blood and brains were collected.
The mice were placed on an accelerating Rotarod (Columbus Instruments, Columbus, OH, USA) equipped with individual timers for each mouse. […] The mice were trained for 3 consecutive days before the final measurement.

[4] = tested on: DA and its metabolite HVA; assay: DA and HVA ELISA on serum and brain extracts of TgA53T mice; type: in vivo, mouse; settings: 50 mg/kg, 12–13-month-old TgA53T mice, vs DMSO
[5] = tested on: alpha-synuclein; design: method as in PMID 38991155; settings: cited from earlier work
[6] = tested on: TgA53T mice; assay: Elevated plus maze test in TgA53T mice; type: in vivo, mouse; settings: 50 mg/kg i.p., vs DMSO
[7] = Plasma binding by equilibrium dialysis; type: in vitro ADME; settings: mouse, rat, dog, and human plasma
Source text: Many of the metabolites were formed after the amide cleavage of the parent, Pegasus, into the tetracycline or the DA scaffold and further biotransformation of those scaffolds. […] Both M8 and M11 are abundantly detected in the brain and the blood in rats and the relative abundance of brain–plasma is 318 and 131%, respectively. […] Furthermore, Pegasus is […] bound to mouse, rat, dog, and human plasma (Avg. 91–98%) using the equilibrium dialysis method.

[8] = tested on: MPTP-treated C57BL/6 mice; assay: Grip strength test in MPTP-treated mice; type: in vivo, mouse; settings: MPTP 25 mg/kg i.p. day 1–5; treatment day 1–13; vs MPTP vehicle control
Method: as §1, §2
The maximal muscle/grip strength of forelimbs was measured using a strength meter.

[9] = In vivo metabolism, metabolite profiling in rat brain and plasma (LC-MS/MS)
Method: In vivo metabolism: We performed a metabolism study (Figure 2) in male Sprague Dawley rats (6–8 weeks old) after a single i.p. injection of 50 mg/kg Pegasus. Plasma and brain samples were serially collected and assessed for the presence of possible phase-I and phase-II metabolites. […] The relative abundance of Pegasus and its metabolites in the brain and plasma was determined at the ionization parameters of the parent.
Metabolite profiling was performed in rat brain and plasma samples to detect phase-I and phase-II metabolites in male Sprague Dawley rats (6–8 weeks old, n = 6) injected (i.p.) with 50 mg/kg Pegasus. The formulation vehicle of Pegasus was 5% DMSO + 35% polyethylene glycol (PEG) 400 + 60% normal saline, and this formulation was used to measure the plasma and brain concentrations of Pegasus and all other metabolites. All samples obtained after Pegasus dosing in rats by the i.p. route of administration were used for metabolite profiling and compared to normal saline. Blood (n = 16 samples) was collected via retro-orbital plexus puncture 0.25, 1, 4, 6, 8, and 24 h pre-dose, and brain sampling was 1, 4, and 24 h post-dose (n = 6 per group). The brain samples were cleaned and perfused, then washed with PBS. The brains (approximately 1.5 g) were transferred to a 50 mL centrifuge tube and 36 mL of ice-cold PBS was added. The mixture was homogenized for about 1–2 min to obtain a uniform suspension. The precipitate was allowed to settle for 30 min at 4 °C, and 15 mL of the middle layer was collected. The plasma and brain samples were processed by the protein precipitation method. In total, 175 μL of acetonitrile was added to 25 μL of plasma samples. The samples were mixed, followed by centrifugation at 4000 rpm for 20 min. The supernatant from the samples was subjected to LC-MS/MS analysis.
The samples were analyzed by liquid chromatography tandem mass spectrometry (HPLC: LC series, Shimadzu, Chiyoda-ku, Tokyo, Japan; mass spectrometer: API4000 Triple Quad mass spectrometer, Applied Biosystems, Carlsbad, CA, USA). The samples (n = 6) were processed using protein precipitation and 1 mM stock solution, prepared in DMSO, spiked into acetonitrile to a final concentration of 4 µM, and processed using liquid chromatography tandem mass spectrometry, employing a linear gradient method using MH+/MH−(Q1) and product ion (MS/MS) scans. The evaluation of the Pegasus metabolites included demethylation, de-hydroxylation, amide cleavage, oxidation, de-hydrogenation, glucuronidation, sulfation, glutathione conjugation, and several other possibilities. The relative abundance of Pegasus and its metabolites in the brain and plasma was determined at the ionization parameters of the parent.

[10] = tested on: TgA53T mice; assay: Rotarod test in TgA53T mice; type: in vivo, mouse
[11] = tested on: TgA53T mice; assay: Tolerated dose, dose escalation study; type: in vivo
Method: Pegasus synthesis and the D5 control derivative of tetracycline were previously described. Pegasus is a 652.2 Da small molecule that consists of one DA conjugated to tetracycline via a molecular linker (Figure 1A). […] We determined a tolerated dose of Pegasus in young (6–7 months old) and old (11–12 months old) TgA53T mice (IP, once daily) treated with an ascending dose of Pegasus of 10 mg/kg, 50 mg/kg, and 75 mg/kg for 4 consecutive days (Figure 1B). Pegasus was tolerated up to 75 mg/kg without visible adverse effects. […] We then reduced the dose to 75 mg/kg for another week.
Tissue toxicity was assessed in young (6–7-month-old) and old (12–13-month-old) A53T mice. The mice received daily i.p. escalating doses of Pegasus or control D5 (tetracycline derivative with no DA) vs. DMSO of 10, 25, 50, and 100 mg/kg for 4 days with each dose up to 16 days, and tissues were analyzed via caspase-3 activity. The caspase-3 activity assay (EnzChek® Invitrogen, Waltham, MA, USA) was conducted according to manufacturer’s protocols as we previously described.

[12] = 50 mg/kg Pegasus i.p., Sprague Dawley rats

C[C@H]1c2ccc(NC(=O)CCC(=O)NCCc3ccc(O)c(O)c3)c(O)c2C(=O)C2=C(O)[C@]3(O)C(=O)C(C(N)=O)=C(O)CC3[C@@H](O)C21 (stereo partly shown) [Pegasus]
GFAP staining in other brain regions ([1]; including the SN and cortex): not appreciably different | GFAP astrocyte reactivity in the hippocampus ([1]; young (6–7-month-old) TgA53T mice, 50 mg/kg i.p., vs DMSO): significant reduction in astrocyte reactivity | Concentration of CNS alpha-synuclein (ELISA) [2]: reduced | Latency to fall (Rotarod) [3]: significantly increased latency to fall | Concentration of DA in the brain [4]: significantly increases | Concentration of DA in the serum [4]: significantly increases | Concentration of HVA in the brain [4]: significantly increases | Concentration of HVA in the serum [4]: though not HVA in the serum | Protective effect on alpha-synuclein in vitro [5]: prevention of alpha-synuclein misfolding | Elevated plus maze total distance traveled [6]: significantly decreased | Elevated plus maze total number of entries to arms [6]: significantly decreased | Percentage of entries to open arms [6]: increased | Percentage of time spent in open arms [6]: increased | Plasma binding (Avg.) [7]: 91–98% | Forelimb grip strength [8]: significantly reversed back to normal levels | Observed in Rat Brain [9, 12]: not detected | Observed in Rat Plasma [9, 12]: very small | Kp ([9]; male, Sprague Dawley, intraperitoneal, 50 mg/kg, relative abundance brain vs plasma, rat): 0 | Duration of improved Rotarod motor performance ([10]; 50 mg/kg for 3 weeks, TgA53T mice): up to 6.5 h | Rotarod motor performance ([10]; 1–2 h post-injection, 50 mg/kg i.p. daily, 12–13 months old TgA53T mice, vs DMSO): significantly improves motor performance | Rotarod motor behavior ([10]; 2–3 h, 3–4 h and up to 5–6.5 h post-injection, 50 mg/kg i.p. daily, vs DMSO): continues to improve motor behavior | Visible side effects at 50 mg/kg ([11]; 50 mg/kg, mice): no visible side effects | Adverse effects at 100 mg/kg ([11]; 100 mg/kg, male and female 12–13 months old mice): some scruffiness and weakness at Day16, and one mouse showed gut toxicity at autopsy | Tolerated dose ([11]; TgA53T, mouse, in vivo, ip, 4 days per dose level): up to 75 mg/kg | Adverse effects at autopsy after dose reduction ([11]; dose reduced to 75 mg/kg for another week): no adverse effects were detected
